Measurements: publication PMC2873862 (Journal of neuroimmunology, 2009)

Tests used:
Assay in all cases: radioligand displacement
Adrenergic β1 = Adrenergic β1 (Homo sapiens, UniProt P08588); format: binding
Cannabinoid CB2 = Cannabinoid CB2 (Homo sapiens, UniProt P34972); format: binding
Chemokine CCR1 = Chemokine CCR1 (Homo sapiens, UniProt P32246); format: binding
Opiate σ(OP1) = Opiate σ(OP1) (Homo sapiens, UniProt P41143); format: binding
Adenosine A1 = Adenosine A1 (Homo sapiens, UniProt P30542); format: binding
Muscarinic M3 = Muscarinic M3 (Homo sapiens, UniProt P20309); format: binding
Endothelin ETA = Endothelin ETA (Homo sapiens, UniProt P25101); format: binding
Muscarinic M1 = Muscarinic M1 (Homo sapiens, UniProt P11229); format: binding
Angiotensin AT1 = Angiotensin AT1 (Homo sapiens, UniProt P30556); format: binding
Chemokine CCR5 = Chemokine CCR5 (Homo sapiens, UniProt P51681); format: binding
Bradykinin B1 = Bradykinin B1 (Homo sapiens, UniProt P46663); format: binding; conditions: vs [3H]des Arg10 Kallidin; bound from single concentration […]
Histamine H1 = Histamine H1 (Homo sapiens, UniProt P35367); format: binding
Serotonin 5-HT1A = Serotonin 5-HT1A (Homo sapiens, UniProt P08908); format: binding
Dopamine D2L = Dopamine D2L (Homo sapiens, UniProt P14416); format: binding
Adrenergic α1D = Adrenergic α1D (Homo sapiens, UniProt P25100); format: binding
Serotonin 5-HT1_5A = Serotonin 5-HT1_5A (Homo sapiens, UniProt P47898); format: binding
Neurotensin NT1 = Neurotensin NT1 (Homo sapiens, UniProt P30989); format: binding
Neuropeptide Y1 = Neuropeptide Y1 (Homo sapiens, UniProt P25929); format: binding
Dopamine D3 = Dopamine D3 (Homo sapiens, UniProt P35462); format: binding
Estrogen ERβ = Estrogen ERβ (Homo sapiens, UniProt Q92731)
Tachykinin NK1 = Tachykinin NK1 (Homo sapiens, UniProt P25103); format: binding
Leukotriene CysLT1 = Leukotriene CysLT1 (Homo sapiens, UniProt Q9Y271); format: binding
Somatostatin sst1 = Somatostatin sst1 (Homo sapiens, UniProt P30872)

Measured: IC50

Sequence of Opiate σ(OP1) (P41143 whole entry): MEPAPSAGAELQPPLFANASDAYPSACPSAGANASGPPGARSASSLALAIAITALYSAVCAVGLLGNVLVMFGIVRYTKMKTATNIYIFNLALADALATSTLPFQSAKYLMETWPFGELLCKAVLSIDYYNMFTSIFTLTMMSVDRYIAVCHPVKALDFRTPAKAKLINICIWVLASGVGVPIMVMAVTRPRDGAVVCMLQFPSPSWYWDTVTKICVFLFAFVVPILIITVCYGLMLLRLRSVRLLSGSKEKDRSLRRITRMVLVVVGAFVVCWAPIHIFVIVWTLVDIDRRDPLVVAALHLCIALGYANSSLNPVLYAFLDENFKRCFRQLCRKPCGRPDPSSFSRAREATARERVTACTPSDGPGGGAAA
Sequence of Estrogen ERβ (Q92731 whole entry): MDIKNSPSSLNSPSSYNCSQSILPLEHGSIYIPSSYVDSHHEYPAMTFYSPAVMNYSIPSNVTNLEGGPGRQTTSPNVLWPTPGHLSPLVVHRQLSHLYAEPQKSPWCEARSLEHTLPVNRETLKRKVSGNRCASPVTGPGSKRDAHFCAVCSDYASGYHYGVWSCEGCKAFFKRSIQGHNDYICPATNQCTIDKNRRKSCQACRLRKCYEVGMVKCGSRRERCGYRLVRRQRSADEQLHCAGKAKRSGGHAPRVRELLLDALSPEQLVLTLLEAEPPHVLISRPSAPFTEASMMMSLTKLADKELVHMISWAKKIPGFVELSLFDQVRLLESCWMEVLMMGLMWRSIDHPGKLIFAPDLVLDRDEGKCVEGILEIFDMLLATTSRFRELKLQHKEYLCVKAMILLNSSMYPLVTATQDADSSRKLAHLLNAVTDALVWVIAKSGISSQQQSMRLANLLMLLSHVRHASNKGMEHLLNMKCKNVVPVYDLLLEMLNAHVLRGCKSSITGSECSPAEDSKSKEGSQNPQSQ
Sequence of Neurotensin NT1 (P30989 whole entry): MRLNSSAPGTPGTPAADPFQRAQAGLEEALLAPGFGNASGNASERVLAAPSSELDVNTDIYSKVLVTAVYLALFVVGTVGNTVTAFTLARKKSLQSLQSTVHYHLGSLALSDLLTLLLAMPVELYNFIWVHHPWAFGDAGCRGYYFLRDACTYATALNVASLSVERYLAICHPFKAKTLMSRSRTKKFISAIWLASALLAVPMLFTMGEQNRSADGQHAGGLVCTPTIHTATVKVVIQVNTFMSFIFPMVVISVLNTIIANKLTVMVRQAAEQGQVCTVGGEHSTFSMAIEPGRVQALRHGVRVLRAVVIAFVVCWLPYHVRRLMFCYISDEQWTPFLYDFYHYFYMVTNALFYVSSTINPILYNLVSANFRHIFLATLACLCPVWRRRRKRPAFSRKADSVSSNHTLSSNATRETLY
Sequence of Leukotriene CysLT1 (Q9Y271 whole entry): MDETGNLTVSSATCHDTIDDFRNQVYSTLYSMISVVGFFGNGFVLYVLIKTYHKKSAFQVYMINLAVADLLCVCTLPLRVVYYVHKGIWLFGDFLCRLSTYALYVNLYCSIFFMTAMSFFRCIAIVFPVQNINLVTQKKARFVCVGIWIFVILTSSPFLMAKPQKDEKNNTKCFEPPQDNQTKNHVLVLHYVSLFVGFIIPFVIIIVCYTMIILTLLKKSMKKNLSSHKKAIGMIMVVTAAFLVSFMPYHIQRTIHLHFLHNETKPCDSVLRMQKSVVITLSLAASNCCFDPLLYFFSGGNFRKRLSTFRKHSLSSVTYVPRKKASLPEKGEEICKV
Sequence of Cannabinoid CB2 (P34972 whole entry): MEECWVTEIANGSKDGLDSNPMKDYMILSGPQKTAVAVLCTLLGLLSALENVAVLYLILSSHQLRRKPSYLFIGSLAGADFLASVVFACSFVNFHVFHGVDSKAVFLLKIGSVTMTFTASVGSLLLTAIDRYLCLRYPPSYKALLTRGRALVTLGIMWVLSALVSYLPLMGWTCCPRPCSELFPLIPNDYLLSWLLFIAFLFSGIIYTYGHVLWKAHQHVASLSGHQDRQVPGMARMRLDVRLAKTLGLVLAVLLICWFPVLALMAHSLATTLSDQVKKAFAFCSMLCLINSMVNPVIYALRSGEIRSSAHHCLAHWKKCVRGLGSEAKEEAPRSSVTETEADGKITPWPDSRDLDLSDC
Sequence of Bradykinin B1 (P46663 whole entry): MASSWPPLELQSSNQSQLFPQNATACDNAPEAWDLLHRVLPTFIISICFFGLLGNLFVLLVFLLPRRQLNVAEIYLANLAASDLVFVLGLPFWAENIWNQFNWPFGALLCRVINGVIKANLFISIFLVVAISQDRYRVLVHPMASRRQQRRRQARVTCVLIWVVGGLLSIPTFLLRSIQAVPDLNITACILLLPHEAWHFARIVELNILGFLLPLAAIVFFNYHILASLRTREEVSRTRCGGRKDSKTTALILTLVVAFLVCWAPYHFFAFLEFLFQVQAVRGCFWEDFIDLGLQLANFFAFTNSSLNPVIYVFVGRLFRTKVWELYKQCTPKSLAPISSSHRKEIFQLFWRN
Sequence of Adrenergic β1 (P08588 whole entry): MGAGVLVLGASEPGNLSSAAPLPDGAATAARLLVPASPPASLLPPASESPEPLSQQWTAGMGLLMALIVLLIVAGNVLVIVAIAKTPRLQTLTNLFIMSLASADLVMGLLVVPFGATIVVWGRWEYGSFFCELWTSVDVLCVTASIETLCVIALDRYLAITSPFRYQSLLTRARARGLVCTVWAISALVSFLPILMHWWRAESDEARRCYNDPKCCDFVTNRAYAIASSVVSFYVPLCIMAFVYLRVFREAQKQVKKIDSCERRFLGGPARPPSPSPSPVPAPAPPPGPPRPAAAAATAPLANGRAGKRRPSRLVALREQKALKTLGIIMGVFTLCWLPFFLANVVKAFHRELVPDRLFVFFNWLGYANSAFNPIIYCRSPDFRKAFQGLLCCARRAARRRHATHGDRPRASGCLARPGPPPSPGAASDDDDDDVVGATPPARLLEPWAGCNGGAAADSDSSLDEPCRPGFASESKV
Sequence of Muscarinic M3 (P20309 whole entry): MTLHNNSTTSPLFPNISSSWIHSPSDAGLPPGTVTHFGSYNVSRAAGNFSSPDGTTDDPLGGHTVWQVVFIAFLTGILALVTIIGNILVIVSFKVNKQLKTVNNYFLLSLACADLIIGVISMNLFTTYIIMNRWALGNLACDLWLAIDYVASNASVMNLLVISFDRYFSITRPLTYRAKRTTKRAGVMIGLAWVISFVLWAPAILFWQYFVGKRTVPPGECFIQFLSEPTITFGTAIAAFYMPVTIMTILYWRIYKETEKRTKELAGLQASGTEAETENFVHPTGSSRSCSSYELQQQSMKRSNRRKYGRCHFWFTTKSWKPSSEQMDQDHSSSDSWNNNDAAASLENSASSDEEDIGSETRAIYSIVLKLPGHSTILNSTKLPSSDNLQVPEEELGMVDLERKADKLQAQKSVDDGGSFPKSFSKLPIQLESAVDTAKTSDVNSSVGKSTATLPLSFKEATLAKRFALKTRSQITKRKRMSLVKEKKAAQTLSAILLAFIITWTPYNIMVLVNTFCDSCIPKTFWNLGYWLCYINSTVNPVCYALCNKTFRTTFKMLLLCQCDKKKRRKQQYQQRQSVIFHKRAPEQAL
Sequence of Serotonin 5-HT1A (P08908 whole entry): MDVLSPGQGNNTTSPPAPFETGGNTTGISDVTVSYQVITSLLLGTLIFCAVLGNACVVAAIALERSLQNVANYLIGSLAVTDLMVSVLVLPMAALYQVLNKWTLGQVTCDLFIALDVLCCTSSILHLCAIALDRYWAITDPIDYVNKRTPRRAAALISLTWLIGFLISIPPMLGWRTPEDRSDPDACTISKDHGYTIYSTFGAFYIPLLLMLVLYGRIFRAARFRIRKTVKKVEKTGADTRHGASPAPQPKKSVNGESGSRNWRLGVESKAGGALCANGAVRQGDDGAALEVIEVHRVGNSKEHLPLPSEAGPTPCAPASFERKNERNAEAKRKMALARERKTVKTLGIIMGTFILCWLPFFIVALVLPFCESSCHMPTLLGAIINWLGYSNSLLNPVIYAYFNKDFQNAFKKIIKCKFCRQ
Sequence of Dopamine D2L (P14416 whole entry): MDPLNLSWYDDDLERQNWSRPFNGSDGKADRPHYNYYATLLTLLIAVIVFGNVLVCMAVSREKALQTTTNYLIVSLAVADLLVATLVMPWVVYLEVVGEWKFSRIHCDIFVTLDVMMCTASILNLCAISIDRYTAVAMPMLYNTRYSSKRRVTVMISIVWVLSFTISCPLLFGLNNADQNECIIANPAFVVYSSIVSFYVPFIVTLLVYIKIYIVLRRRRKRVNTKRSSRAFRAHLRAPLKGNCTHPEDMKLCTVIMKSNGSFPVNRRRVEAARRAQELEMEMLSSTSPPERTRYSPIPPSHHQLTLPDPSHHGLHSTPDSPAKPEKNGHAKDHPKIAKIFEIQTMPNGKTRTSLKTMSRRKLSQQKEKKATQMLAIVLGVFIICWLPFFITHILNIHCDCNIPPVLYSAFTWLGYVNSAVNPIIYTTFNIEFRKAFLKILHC
Sequence of Neuropeptide Y1 (P25929 whole entry): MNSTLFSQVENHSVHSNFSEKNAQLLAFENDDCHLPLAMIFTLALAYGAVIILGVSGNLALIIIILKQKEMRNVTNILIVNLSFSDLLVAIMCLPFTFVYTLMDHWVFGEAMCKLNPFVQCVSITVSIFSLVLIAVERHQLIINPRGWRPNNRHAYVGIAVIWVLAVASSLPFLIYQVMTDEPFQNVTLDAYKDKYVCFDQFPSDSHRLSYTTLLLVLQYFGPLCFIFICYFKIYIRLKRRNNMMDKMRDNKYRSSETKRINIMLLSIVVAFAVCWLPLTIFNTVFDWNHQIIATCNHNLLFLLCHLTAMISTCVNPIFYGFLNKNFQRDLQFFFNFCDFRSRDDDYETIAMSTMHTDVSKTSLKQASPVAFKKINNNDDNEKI

CC(=O)c1ccc2c(c1)C1C=CCC1C(c1cc3c(cc1Br)OCO3)N2 (centres unmarked) [G-1, 1-[4-(6-bromobenzo[1,3]dioxol-5-yl)-3a,4,5,9b-tetrahydro-3H-cyclopenta[c]quinolin-8-yl]-ethanone]
> 10 µM: all assays above
